The source of these data is patent US20080004282A1, “Compositions and methods for modulating gated ion channels” (PainCeptor Pharma Corporation, priority 2006, published 2008).

For the assay, the system named is chemically-induced spontaneous pain evoked by intraplantar injection of formalin. Put plainly: Formalin test (model of acute tonic pain). The class given is in vivo. Conditions: rat; for pain intensity as evaluated by the flinching or licking behaviors: s.c. 30 min prior to formalin injection; for ED50: sc, s.c. 30 min prior to formalin, licking and biting episodes in phase IIa, read-out: ED50, effective dose where the pain score is reduced by half. The source says:
Model of Acute Tonic Pain
This example describes a procedure for the in vivo assessment of the inhibitory activity of the compounds of the present invention.
A number of well-established models of pain are described in the literature and are known to the skilled in the art (see, for example, Table 1). This example describes the use of the Formalin test.
Male Sprague-Dawley rats are housed together in groups of three animals under standard conditions with unrestricted access to food and water. All experiments are conducted according to the ethical guidelines for investigations of experimental pain in conscious animals (Zimmerman, 1983)
Assessment of formalin-induced flinching behavior in normal, uninjured rats (body weight 150-180 g) is made with the use of an Automated Nociception Analyser (University of California, San Diego, USA). Briefly, this involves placing a small C-shaped metal band (10 mm wide×27 mm long) on the hindpaw of the rat to be tested. The rats (four rats are included in each testing session) are then placed in a cylindrical plexiglass observation chamber (diameter 30.5 cm and height 15 cm) for 20 min for adaptation purposes prior to being administered drug or vehicle according to the experimental paradigm being followed. […] Rats are then returned to their separate observation chambers, each of which are in turn situated upon an enclosed detection device consisting of two electromagnetic coils designed to produce an electromagnetic field in which movement of the metal band could be detected. […] A sampling interval of 1 min is used and on the basis of the resulting response patterns 5 phases of nociceptive behaviour are identified and scored: first phase (P1; 0-5 min), interphase (Int; 6-15 min), second phase (P2; […]), phase 2A (P2A; 16-40 min) and phase 2B (P2B; 41-60 min).
Nociceptive behavior is also determined manually every 5 min by measuring the amount of time spent in each of four behavioral categories: 0, treatment of the injected hindpaw is indistinguishable from that of the contralateral paw; 1, the injected paw has little or no weight placed on it; 2, the injected paw is elevated and is not in contact with any surface; 3, the injected paw is licked, bitten, or shaken. A weighted nociceptive score, ranging from 0 to 3 is calculated by multiplying the time spent in each category by the category weight, summing these products, and dividing by the total time for each 5 min block of time. […] On the basis of the resulting response patterns, […] of nociceptive behavior are identified and scored: first phase (P1; 0-5 min), interphase (Int; 6-15 min), second phase (P2; […]), phase 2A (P2A; 16-40 min) and phase 2B (P2B; 41-60 min). […]

For the compound `CCN1CCc2c(-c3ccccc3)cc(C#N)c(N)c2C1` [Compound 12, 8-Amino-2-ethyl-5-phenyl-1,2,3,4-tetrahydro-isoquinoline-7-carbonitrile], the “pain intensity as evaluated by the flinching or licking behaviors” value was “dose-dependent reduction” and the ED50 is 4 mg/kg.

On to `CCN1CCc2c(-c3cc(Cl)ccc3OC)cc(C#N)c(N)c2C1` [Compound 44], for which the “pain intensity as evaluated by the flinching or licking behaviors” value was “dose-dependent reduction” and the ED50 turned out to be 22 mg/kg.

By ED50 is commonly meant the midpoint of the dose-response relation.
